Test results published in US20260207755A1, “TARGETED PROTEIN DEGRADERS OF INDOLEAMINE 2,3-DIOXYGENASE 1 (IDO1)” (Northwestern University, priority 2022, published 2026).

How the values were obtained:
[1] = biological target: T1, 6×His tagged recombinant IDO1 protein (Homo sapiens, UniProt P14902); test: BLI binary binding of IDO1-PROTAC to immobilized IDO1; details: IDO1 on Ni-NTA sensors, PBS+0.5% DMSO pH 7.4, 30° C
T1 construct: purchased Active Motif 81031
Method: (§1) FIGS. 13A-13C show mechanistic understanding of IDO1-PROTAC-induced IDO1 degradation. […] Data sets fitted globally with a 1:1 kinetic model. FIG. 13B is BLI sensorgrams showing association and dissociation of compound NU227164 to CRBN protein pre-immobilized on AR2G sensors. Binding experiments and data fitting were performed as described above. FIG. 13C is BLI sensorgrams for the IDO1-NU227164-CRBN ternary complex. IDO1 protein was loaded onto NiNTA biosensors. IDO1 was pre-immobilized on NI NTA sensors, and binding of compound NU227164 preincubated with CRBN was monitored in the association step; next, the sensors were moved into reaction buffer in order monitor dissociation. As indicated in the legend, each trace corresponds to a different concentration of NU227164. Data sets fitted globally with a 1:1 kinetic model. No binding was detected between CRBN and IDO1 in the absence of NU227164 (trace “CRBN only”).
(§2) FIGS. 14A-14C illustrate mechanistic understanding of DO1-PROTAC-induced IDO1 degradation. […] The equilibrium dissociation constant (Kd) was obtained by fitting the steady state data (Req as a function of compound concentration) with a 1:1 binding model. FIG. 14B is BLI sensorgrams showing association and dissociation of compound NU227168 to CRBN protein pre-immobilized on AR2G sensors. Binding experiments and data fitting were performed as described above. FIG. 14C is BLI sensorgrams for the IDO1-NU227168-CRBN ternary complex. IDO1 protein was loaded onto NiNTA biosensors. IDO1 was pre-immobilized on NI NTA sensors, and binding of compound NU227168 preincubated with CRBN was monitored in the association step; next, the sensors were moved into reaction buffer in order monitor dissociation. As indicated in the legend, each trace corresponds to a different concentration of NU227168. Data sets fitted globally with a 1:1 kinetic model. No binding was detected between CRBN and IDO1 in the absence of NU227168 (trace “CRBN only”).
(§3) FIGS. 15A-15C show mechanistic understanding of IDO1-PROTAC-induced IDO1 degradation. […] The equilibrium dissociation constant (Kd) was obtained by fitting the steady state data (Req as a function of compound concentration) with a 1:1 binding model. FIG. 15B is BLI sensorgrams showing association and dissociation of compound NU227191 to CRBN protein pre-immobilized on AR2G sensors. Binding experiments and data fitting were performed as described above. FIG. 15C is BLI sensorgrams for the IDO1-NU227191-CRBN ternary complex. IDO1 protein was loaded onto NiNTA biosensors. IDO1 was pre-immobilized on NI NTA sensors, and binding of compound NU227191 preincubated with CRBN was monitored in the association step; next, the sensors were moved into reaction buffer in order monitor dissociation. As indicated in the legend, each trace corresponds to a different concentration of NU227191. Data sets fitted globally with a 1:1 kinetic model. No binding was detected between CRBN and IDO1 in the absence of NU227191 (trace “CRBN only”).
(§4) FIGS. 16A-16C show mechanistic understanding of IDO1-PROTAC-induced IDO1 degradation. […] The equilibrium dissociation constant (Kd) was obtained by fitting the steady state data (Req as a function of compound concentration) with a 1:1 binding model. FIG. 16B is BLI sensorgrams showing association and dissociation of compound NU227199 to CRBN protein pre-immobilized on AR2G sensors. Binding experiments and data fitting were performed as described above. FIG. 16C is BLI sensorgrams for the IDO1-NU227199-CRBN ternary complex. IDO1 protein was loaded onto NiNTA biosensors. IDO1 was pre-immobilized on NI NTA sensors, and binding of compound NU227199 preincubated with CRBN was monitored in the association step; next, the sensors were moved into reaction buffer in order monitor dissociation. As indicated in the legend, each trace corresponds to a different concentration of NU227199. Data sets fitted globally with a 1:1 kinetic model. […]

cereblon (CRBN) protein = biological target: T2, cereblon (CRBN) protein (Homo sapiens, UniProt Q96SW2); test: BLI binary binding of IDO1-PROTAC to immobilized CRBN; details: CRBN amine coupled to AR2G sensors
T2 construct: purchased Sino Biological
T2 sequence (Q96SW2 whole entry): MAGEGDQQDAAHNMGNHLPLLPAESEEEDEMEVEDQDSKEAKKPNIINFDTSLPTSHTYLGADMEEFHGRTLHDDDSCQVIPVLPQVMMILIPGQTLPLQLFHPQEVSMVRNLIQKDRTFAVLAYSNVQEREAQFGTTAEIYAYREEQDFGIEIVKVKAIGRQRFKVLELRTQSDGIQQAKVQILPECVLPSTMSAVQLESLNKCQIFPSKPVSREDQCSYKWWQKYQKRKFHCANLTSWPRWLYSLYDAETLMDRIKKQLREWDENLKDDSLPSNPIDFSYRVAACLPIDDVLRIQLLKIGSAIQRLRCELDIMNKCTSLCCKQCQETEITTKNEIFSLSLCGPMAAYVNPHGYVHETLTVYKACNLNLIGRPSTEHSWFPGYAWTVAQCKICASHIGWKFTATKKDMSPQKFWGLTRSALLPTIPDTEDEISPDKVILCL
Method: as §1, §2, §3, §4

[2] = biological target: T3, IDO1-PROTAC-CRBN ternary complex (Homo sapiens, UniProt P14902+Q96SW2); test: BLI IDO1-PROTAC-CRBN ternary complex; assay type: binding; details: IDO1 on NiNTA sensors, PROTAC pre-incubated with 25 molar excess of CRBN, 1:1 kinetic model
T3 construct: purchased Active Motif (IDO1); Sino Biological (CRBN) 81031 (IDO1); none given for CRBN
T3 sequence (P14902 whole entry): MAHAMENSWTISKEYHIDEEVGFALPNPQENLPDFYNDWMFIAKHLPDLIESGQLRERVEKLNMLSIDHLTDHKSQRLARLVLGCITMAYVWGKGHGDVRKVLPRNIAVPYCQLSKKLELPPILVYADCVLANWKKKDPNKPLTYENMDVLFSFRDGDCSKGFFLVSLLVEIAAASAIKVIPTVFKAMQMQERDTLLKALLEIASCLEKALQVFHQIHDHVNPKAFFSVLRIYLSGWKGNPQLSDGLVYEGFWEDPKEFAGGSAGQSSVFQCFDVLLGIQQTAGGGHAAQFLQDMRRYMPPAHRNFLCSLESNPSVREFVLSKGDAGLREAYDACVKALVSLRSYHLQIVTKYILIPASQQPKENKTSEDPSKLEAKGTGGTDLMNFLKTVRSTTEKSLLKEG
T3 sequence (Q96SW2 whole entry): as the sequence (Q96SW2 whole entry) above
Method: as §1, §2, §3, §4

IDO1 in U87 cells = biological target: T4, IDO1 in U87 cells (Homo sapiens, UniProt P14902); test: PROTAC-induced IDO1 degradation in U87 cells by Western blot; assay type: cell-based; details: 24 h
T4 construct: endogenous in cells; host or cells: U87 cells, IDO1 induced with IFNγ
T4 sequence (P14902 whole entry): as the sequence (P14902 whole entry) above
Method: (§5) FIGS. 20A-20E show biological activity of compounds NU227326 and NU227327.
(§6) FIGS. 22A-22D show determination of IDO1 degrading potency of NU227326.
(§7) Protein samples were prepared by lysing the cells in RIPA buffer (Sigma-Aldrich, Cat #R0278) supplemented with protease and phosphatase inhibitors on ice for 30 min. Cell lysates were clarified by centrifugation at 16,000×g for 15 min at 4° C. Equal amounts of proteins as quantified by bicinchoninic acid assay (Pierce) were separated on an SDS-polyacrylamide gel electrophoresis and proteins were electrophoretically transferred onto a polyvinylidene fluoride (PVDF) membrane using a Trans-Blot Turbo Transfer System (Bio-Rad, Hercules, CA, USA). The blotted membranes were blocked for 1 h at room temperature in blocking buffer containing 5% (w/v) nonfat dry milk in Tris-buffered saline and 0.1% Tween 20 (TBS-T) followed by incubating the membranes overnight at 4° C. with primary antibodies against a target protein diluted at a standardized concentration in blocking buffer. […] The protein bands were detected using an enhanced chemiluminescence reagent (SuperSignal West Femto Maximum Sensitivity substrate) and blots were visualized with Bio-Rad ImageLab software on a Bio-Rad […] MP imaging system. […]

IDO1 in GBM43 cells = biological target: T5, IDO1 in GBM43 cells (Homo sapiens, UniProt P14902); test: PROTAC-induced IDO1 degradation in GBM43 cells by Western blot; assay type: cell-based; details: 24 h
T5 construct: endogenous in cells; host or cells: GBM43 cells
T5 sequence (P14902 whole entry): as above
Method: as §5, §6, §7

kynurenine in U87 cells = test: Kynurenine assay (Ehrlich's reagent) in U87 cells; assay type: cell-based; details: indicated doses of compound
Method: as §5
Kynurenine levels in cell culture supernatants were measured using Erhlich's reagent. Briefly, cell culture supernatants were incubated with a 10% final concentration of trichloroacetic acid in Eppendorf tubes for 20 min at 60° C. to release kynurenine from cells and to precipitate proteins. After 20 minutes, samples were centrifuged for 20 min at 2500×g and supernatants were mixed with 20 mg/mL 4-dimethylamino benzaldehyde in acetic acid (Sigma Aldrich) at a 1:1 ratio and absorbance was measured at 480 nm using a plate reader.

[3] = levels of IDO1 quantified from Western blot

T1 sequence (P14902 whole entry): as above

| Compound | Kd [1] [nM] | Kd (cereblon (CRBN) protein) [nM] | Kd [2] [nM] | IDO1 degradation by Western blotting (IDO1 in U87 cells; indicated concentrations) | DC50 (IDO1 in U87 cells; [3]) [nM] | IDO1 degradation by Western blotting (IDO1 in GBM43 cells; indicated concentrations) | DC50 (IDO1 in GBM43 cells; [3]) [nM] | concentration of kynurenine (kynurenine in U87 cells) | IDO1-PROTAC-CRBN Ternary Kd [2] |
| --- | --- | --- | --- | --- | --- | --- | --- | --- | --- |
| C[C@@H](C(=O)Nc1cccc(OC2CCN(C(=O)CN3CCC(N4CCN(c5ccc6c(c5)C(=O)N(C5CCC(=O)NC5=O)C6=O)CC4)CC3)CC2)c1)[C@H]1CC[C@@H](c2ccnc3ccc(F)cc32)CC1 (stereo partly drawn) [NU227326, (2R)-N-(3-((1-(2-(4-(4-(2-(2,6-dioxopiperidin-3-yl)-1,3-dioxoisoindolin-5-yl)piperazin-1-yl)piperidin-1l-yl)acetyl)piperidin-4-yl)oxy)phenyl)-2-((1s,4S)-4-(6-fluoroquinolin-4-yl)cyclohexyl)propanamide] | 140 | 380 | 321 | dose-dependent IDO1 degradation | 10.4 | potent and dose-dependent degradation of IDO1 | 20.3 | strong reduction of cellular kynurenine |  |
| C[C@@H](C(=O)Nc1ccc(Cl)c(OC2CCN(C(=O)CN3CCC(N4CCN(c5ccc6c(c5)C(=O)N(C5CCC(=O)NC5=O)C6=O)CC4)CC3)CC2)c1)[C@H]1CC[C@@H](c2ccnc3ccc(F)cc32)CC1 (stereo partly drawn) [NU227168, (2R)-N-(4-chloro-3-((1-(2-(4-(4-(2-(2,6-dioxopiperidin-3-yl)-1,3-dioxoisoindolin-5-yl)piperazin-1-yl)piperidin-1-yl)acetyl)piperidin-4-yl)oxy)phenyl)-2-((1s,4S)-4-(6-fluoroquinolin-4-yl)cyclohexyl)propanamide] | 340 | 190 | 87 |  |  |  |  |  |  |
| (2R)-N-(4-((1-(1-(2-((2-(2,6-dioxopiperidin-3-yl)-1,3-dioxoisoindolin-5-yl)amino)ethoxy)ethyl)piperidine-4-carbonyl)piperidin-4-yl)oxy)phenyl)-2-((1s,4S)-4-(6-fluoroquinolin-4-yl)cyclohexyl)propanamide [NU227191] | 12000 | 5100 |  |  |  |  |  |  | could not obtain |
| C[C@@H](C(=O)Nc1cccc(OC2CCN(C(=O)CN3CCC(CN4CCN(c5ccc6c(c5)C(=O)N(C5CCC(=O)NC5=O)C6=O)CC4)CC3)CC2)c1)[C@H]1CC[C@@H](c2ccnc3ccc(F)cc32)CC1 (stereo partly drawn) [NU227327, (2R)-N-(3-((1-(2-(4-((4-(2-(2,6-dioxopiperidin-3-yl)-1,3-dioxoisoindolin-5-yl)piperazin-1-yl)methyl)piperidin-1-yl)acetyl)piperidin-4-yl)oxy)phenyl)-2-((1s,4S)-4-(6-fluoroquinolin-4-yl)cyclohexyl)propanamide] | 370 | 520 | 997 |  |  |  |  | strong reduction of cellular kynurenine |  |

Further lines, with some results ahead:

| Kd [1] [nM] | Kd (cereblon (CRBN) protein) [nM] | Kd [2] [nM] | Compound | IDO1 degradation by Western blotting (IDO1 in U87 cells; indicated concentrations) | DC50 (IDO1 in U87 cells; [3]) [nM] | IDO1 degradation by Western blotting (IDO1 in GBM43 cells; indicated concentrations) | DC50 (IDO1 in GBM43 cells; [3]) [nM] | concentration of kynurenine (kynurenine in U87 cells) | IDO1-PROTAC-CRBN Ternary Kd [2] |
| --- | --- | --- | --- | --- | --- | --- | --- | --- | --- |
| 2100 | 1600 | 689 | C[C@@H](C(=O)Nc1ccc(Cl)c(OC2CCN(C(=O)C3CCN(C[C@H]4CC[C@H](Nc5ccc6c(c5)C(=O)N(C5CCC(=O)NC5=O)C6=O)CC4)CC3)CC2)c1)[C@H]1CC[C@@H](c2ccnc3ccc(F)cc32)CC1 (stereo partly drawn) [NU227199, (2R)-N-(4-chloro-3-((1-(1-(((1r,4r)-4-((2-(2,6-dioxopiperidin-3-yl)-1,3-dioxoisoindolin-5-yl)amino)cyclohexyl)methyl)piperidine-4-carbonyl)piperidin-4-yl)oxy)phenyl)-2-((1s,4S)-4-(6-fluoroquinolin-4-yl)cyclohexyl)propanamide] |  |  |  |  |  |  |
| 430 | 310 | 128 | C[C@@H](C(=O)Nc1ccc(Cl)c(OC2CCN(C(=O)CN3CCC(CN4CCN(c5ccc6c(c5)C(=O)N(C5CCC(=O)NC5=O)C6=O)CC4)CC3)CC2)c1)[C@H]1CC[C@@H](c2ccnc3ccc(F)cc32)CC1 (stereo partly drawn) [NU227164, (2R)-N-(4-chloro-3-((1-(2-(4-((4-(2-(2,6-dioxopiperidin-3-yl)-1,3-dioxoisoindolin-5-yl)piperazin-1-yl)methyl)piperidin-1-yl)acetyl)piperidin-4-yl)oxy)phenyl)-2-((1s,4,S)-4-(6-fluoroquinolin-4-yl)cyclohexyl)propanamide] |  |  |  |  |  |  |
